Laboratory results from patent US20220105058A1, “USE OF 3-O-SULFAMATE-16,16-DIMETHYL-D-HOMOEQUILENIN TO TREAT ONCOLOGICAL DISEASES” (priority 2018, published 2022).
Where “and” joins values, the source holds several entries; their conditions need not be identical. Identical values can stand only once. Like-named read-outs stand apart in the source and are kept apart here. Marks after values point to notes of the source that are not given here.

Experiments:
[1] = test system: Breast tumors (BT) in female FBV/N mice transgenic for HER-2/neu; test: antitumor activity in mice with HER-2/neu breast tumors; type: in vivo, FVB mice transgenic for HER-2/neu; conditions: for frequency of tumor stabilizations: end of observation; for antitumor efficacy compared with Tamoxifen: mouse, in vivo
From the text: The age of animals at the beginning of the study was 21-41 weeks and weight was 25-30 g.
The control groups were given the olive oil (placebo).
TGI=(Vctrl−Vexp)/Vctrl×100(%),

[2] = body weight and tolerability during the antitumor study
Procedure: The study medicament was administered i.g. using a metal atraumatic gavage (with the procedure corresponds to the oral route of administration in clinical settings). The medicament was administered in a single daily dose (20 mg/kg of body weight) and 5-fold daily dose of 100 mg/kg of body weight. Ex tempore solutions of the medicament for administration were prepared in olive oil (refined olive oil supplemented with unrefined extra virgin olive oil available under Global Village “Clasico” trademark, lot L:183351116, expiry date 26 Apr. 2020, BAIEO, Spain). The administered volume was 0.1 ml per 10 g of a mouse body weight (0.2 ml of a ready-to-use formulation for a mouse of 20 g). The medicament administration was started 24 hours after the randomization. The duration of the administration course was 27-28 days.
This dose corresponds to a human daily dose of 20 mg/kg.
The evaluation criteria included the clinical observation data, animals body weights, time of death (if applicable), tumor growth over time, pathomorphological examination data (verification of a neoplasm during autopsy, assessment of toxic effects by macroscopic presentation of changes in the internal organs).
The animals body weights were recorded before the first administration of the medicaments and then twice per week using a verified high-speed electronic laboratory balance Ohaus Scout Pro (USA) with a maximum load of 2000 g and a measurement step of 0.1 g.

[3] = test system: subcutaneous xenografts of human SKBR-3 breast cancer
Procedure: (§1) A comparative study of the medicaments in vivo was performed in female Balb/c nude mice with subcutaneously (s.c.) transplanted tumor cells. The experiment lasted for 29 days after the medicament administration for the first time (the administration of the medicaments was started on Day 5 after the tumor strain transplantation).
(§2) The medicament and the reference drug were administered intragastrically multiple times at doses of 30 mg/kg and 10 mg/kg daily for 21 days.
(§3) The placebo group was given 1% starch solution intragastrically in equivalent volumes and in the same regime. Tumor nodes were measured 2 times per week. […] Once the treatment was completed, the last tumor measurement was carried out, and animals were weighed and euthanized.
(§4) The animals were weighed on the first day of the experiment, and then 2 times per week throughout the experiment according to the research protocol.
(§5) A tumor node was measured after tumor transplantation 2 times per week throughout the experiment. The tumor node volume was determined by the formula:
(§6) V=π/6*L*W*H, where L, W, H are the linear size dimensions of the tumor.
(§7) Determination of Antitumor Activity
(§8) Tumor growth inhibition index (TGI) was used as a criterion for the study of the medicament efficacy and calculated by the formula as follows:
(§9) TGI (%)=|Vctrl−Vexp|/Vctrl*100
(§10) where Vctrl and Vexp are the average tumor volume (mm^3) in the control and in the experimental groups, respectively.
(§11) After the course of the treatment, the animals were euthanized by the cervical dislocation of cervical vertebrae.
(§12) The statistical data processing was conducted using SPSS 21 package (license No. 20130626-3). Descriptive statistics in the study includes the following: arithmetic average, standard deviation (SD), standard mean error (SE), median, quartiles, interquartile range. To compare quantitative characteristics in the groups, the Mann-Whitney-Wilcoxon test was used without corrections for multiple comparisons. The results were considered statistically significant at p<0.05.

[4] = test system: subcutaneous xenografts of human TNBC-Kad breast cancer
Procedure: as §1, §2, §3, §4, §5, §6, §7, §8, §9, §10, §11, §12

[5] = pilot experiment, medicament 10 mg/kg, Day 10

CC1(C)CC(=O)[C@@]2(C)CCc3c(ccc4cc(OS(N)(=O)=O)ccc34)[C@@H]2C1 [medicament, 3-O-sulfamate-16,16-dimethyl-D-homoequilenin]
average total volume of tumors in mice (M) ([1]; medicament 100 mg/kg, Day 21): 2.75** cm^3 | average volume of tumors (M) ([1]; medicament 100 mg/kg, Day 21): 0.57* cm^3 | relative change of the average total volume to that of Day − 1 (M) ([1]; medicament 100 mg/kg, Day 21): 75^aa % | TGI (average total tumor volume) ([1]; medicament 100 mg/kg, Day 28): 53% | TGI (average tumor volume) ([1]; medicament 100 mg/kg, Day 28): 42% | average total volume of tumors in mice (M) ([1]; medicament 100 mg/kg, Day 28): 2.71**^a cm^3 | average volume of tumors (M) ([1]; medicament 100 mg/kg, Day 28): 0.56**^a cm^3 | relative change of the average total volume to that of Day − 1 (M) ([1]; medicament 100 mg/kg, Day 28): 69**^aa % | Total number of new tumors ([1]; medicament 100 mg/kg, end of experiment): 15 | frequency of tumor stabilizations ([1]; medicament 100 mg/kg): 27% | frequency of tumor stabilizations ([1]; medicament 100 mg/kg, listed as compound): 27% | antitumor efficacy compared with Tamoxifen [1]: statistically significantly more effective | antitumor efficacy compared with Tamoxifen ([1]; listed as agent): inhibits the proliferation of tumours more effectively | signs of toxic damage to internal organs at autopsy ([2]; end of the experiment): No specific signs of toxic damage to internal organs were found | clinical signs of toxicity ([2]; mouse, in vivo): no clinical signs of toxicity being observed | number of dead mice before the end of the observation period ([3]; medicament 10 mg/kg): 5 out of 7 | average tumor volume (M ± m) ([3]; medicament 10 mg/kg i.g. daily, Day 0 of treatment): 1.0±0.4 mm^3 | average tumor volume (M ± m) ([3]; medicament 10 mg/kg i.g. daily, Day 0 of treatment, listed as Steroid): 1.0 ± 0.4 mm^3 | average tumor volume (M ± m) ([3]; medicament 10 mg/kg, Day 3): 1.2 ± 0.4 mm^3 | SKBR-3 growth inhibition, TGI ([3]; medicament 10 mg/kg, Day 7): 74.3% | average tumor volume (M ± m) ([3]; medicament 10 mg/kg, Day 7): 5.1±2.3 mm^3 | average tumor volume (M ± m) ([3]; medicament 10 mg/kg, Day 7, listed as Steroid): 5.1 ± 2.3 mm^3 | SKBR-3 growth inhibition, TGI ([3]; medicament 10 mg/kg, Day 10): 68.0% | average tumor volume (M ± m) ([3]; medicament 10 mg/kg, Day 10): 24.8±12.2 mm^3 | average tumor volume (M ± m) ([3]; medicament 10 mg/kg, Day 10, listed as Steroid): 24.8 ± 12.2 mm^3 | SKBR-3 growth inhibition, TGI ([3]; medicament 10 mg/kg, Day 14): 94.3% | average tumor volume (M ± m) ([3]; medicament 10 mg/kg, Day 14): 6.9±2.2 mm^3 | average tumor volume (M ± m) ([3]; medicament 10 mg/kg, Day 14, listed as Steroid): 6.9 ± 2.2 mm^3 | SKBR-3 growth inhibition, TGI ([3]; medicament 10 mg/kg, Day 17): 90.6% | average tumor volume (M ± m) ([3]; medicament 10 mg/kg, Day 17): 17.6±0.7 mm^3 | average tumor volume (M ± m) ([3]; medicament 10 mg/kg, Day 17, listed as Steroid): 17.6 ± 0.7 mm^3 | SKBR-3 growth inhibition, TGI ([3]; medicament 10 mg/kg, Day 21): 90.2% | average tumor volume (M ± m) ([3]; medicament 10 mg/kg, Day 21): 26.1±12.1 mm^3 | average tumor volume (M ± m) ([3]; medicament 10 mg/kg, Day 21, listed as Steroid): 26.2 ± 12.1 mm^3 | SKBR-3 growth inhibition, TGI ([3]; medicament 10 mg/kg, Day 24): 86.3% | average tumor volume (M ± m) ([3]; medicament 10 mg/kg, Day 24): 32.0 ± 6.9 mm^3 | average tumor volume (Vaverage) [3, 5]: 2.2±2.0 mm^3 | maximum TGI [3, 5]: 91.2% | number of dead mice before the end of the observation period ([4]; medicament 10 mg/kg): 10 out of 10 | average tumor volume (M ± m) ([4]; medicament 10 mg/kg, Day 3): 5.65 ± 1.64 mm^3 | TNBC_Kad growth inhibition, TGI ([4]; medicament 10 mg/kg, Day 7): 66.1% | average tumor volume (M ± m) ([4]; medicament 10 mg/kg, Day 7): 27.0±5.1 mm^3 and 26.98 ± 5.12 mm^3 | TNBC_Kad growth inhibition, TGI ([4]; medicament 10 mg/kg, Day 10): 78.7% | average tumor volume (M ± m) ([4]; medicament 10 mg/kg, Day 10): 21.6±4.9 mm^3 and 21.59 ± 4.88 mm^3 | TNBC_Kad growth inhibition, TGI ([4]; medicament 10 mg/kg, Day 14): 83.1% | average tumor volume (M ± m) ([4]; medicament 10 mg/kg, Day 14): 27.6±2.6 mm^3 and 27.59 ± 2.57 mm^3 | TNBC_Kad growth inhibition, TGI ([4]; medicament 10 mg/kg, Day 17): 76.1% | average tumor volume (M ± m) ([4]; medicament 10 mg/kg, Day 17): 46.3±5.3 mm^3 and 46.25 ± 5.31 mm^3 | average tumor volume (M ± m) ([4]; medicament i.g. 10 mg/kg, Day 0 of treatment): 1.6±0.4 mm^3 and 1.57 ± 0.35 mm^3 | efficacy compared with tamoxifen and letrozole ([4]; xenograft human tumor of triple negative breast cancer): more effective than tamoxifen and aromatase inhibitor letrozole
